One assay has as its system HCT116 MTAP null cells. In words: HCT116 proliferation assay, MTAP null cells (CellTiter-Glo, 6 days). Type of assay: cell-based. Conditions: 144 h, read-out: Protif_ HCT116-MTAP null IC50. In a few lines: (§1)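 RPMI 1640/10% FBS; overnight attachment at 37° C, 5% CO2; 8–9-pt 1:3 titration, top 1 or 10 µM; DMSO ctrl; luminescence readout.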
(In ATP-based viability assays light output follows the ATP content of the culture.)

The next assay deals with PRMT5/MEP50 (Homo sapiens, UniProt O14744). The experiment in a line: MTase-Glo methyl transferase assay, Method A (Histone H4 peptide, 1 µM MTA, 24 h pre-incubation). It counts as biochemical. Also noted: made in house. Conditions: read-out: PRMT5 MTase Glo Ki (nM, Meth. A). As to the method: Method A: The PRMT5 inhibitory activity of test compounds was determined using the MTase-Glo™ assay (Promega), which monitors the product (S-adenosyl homocysteine or SAH) of methyltransferase reactions. The PRMT5 MTase-Glo assay was conducted in a 384-well white ProxiPlate (PerkinElmer) in a total volume of 12 µL. The PRMT5 enzymatic reaction (in 4 µL) contained 10 nM PRMT5/MEP50 (produced at Amgen), 5 µM S-adenosyl methionine (SAM, Promega), 1 µM Histone H4 (1-21)-Lys(Biotin) (Anaspec), 1 µM 5′-methylthioadenosine (MTA, Sigma) and two-fold serially diluted compounds in a reaction buffer of 50 mM Tris (pH 8.0), 50 mM NaCl, 0.01% Tween 20, 0.01% BSA, and 1 mM DTT. Test compounds were pre-incubated with PRMT5/MEP50, SAM, and MTA for 24 hours before addition of Histone H4 peptide to initiate the PRMT5 reaction. The reaction was allowed to proceed for 2 hours at room temperature and was then terminated by addition of 2 µL of 3X MTase-Glo™ Reagent (Promega) and 150 µM EPZ015666 (Sigma). After a 30-minute incubation at room temperature, 6 µL of MTase-Glo™ Detection Solution (Promega) was added and the plate was incubated at room temperature for an additional 30 minutes. The light signal corresponding to the amount of SAH produced by the PRMT5 reaction was subsequently measured using an Envision multimode reader (PerkinElmer). IC50 and KI values were obtained by analyzing dose-response curves using Genedata Screener (Genedata).

Another assay concerns HCT116 WT cells. The experiment in a line: HCT116 proliferation assay, WT cells (CellTiter-Glo, 6 days). It counts as cell-based. Conditions: Homo sapiens, HCT-116, 144 h, read-out: Prolif_HCT116-WT IC50. In a few lines:
as §1

Read-outs that look alike come from different tables or passages of the source. A value given as a limit tells only on which side of the number the result lay.

PRMT5/MEP50, sequence (O14744 whole entry): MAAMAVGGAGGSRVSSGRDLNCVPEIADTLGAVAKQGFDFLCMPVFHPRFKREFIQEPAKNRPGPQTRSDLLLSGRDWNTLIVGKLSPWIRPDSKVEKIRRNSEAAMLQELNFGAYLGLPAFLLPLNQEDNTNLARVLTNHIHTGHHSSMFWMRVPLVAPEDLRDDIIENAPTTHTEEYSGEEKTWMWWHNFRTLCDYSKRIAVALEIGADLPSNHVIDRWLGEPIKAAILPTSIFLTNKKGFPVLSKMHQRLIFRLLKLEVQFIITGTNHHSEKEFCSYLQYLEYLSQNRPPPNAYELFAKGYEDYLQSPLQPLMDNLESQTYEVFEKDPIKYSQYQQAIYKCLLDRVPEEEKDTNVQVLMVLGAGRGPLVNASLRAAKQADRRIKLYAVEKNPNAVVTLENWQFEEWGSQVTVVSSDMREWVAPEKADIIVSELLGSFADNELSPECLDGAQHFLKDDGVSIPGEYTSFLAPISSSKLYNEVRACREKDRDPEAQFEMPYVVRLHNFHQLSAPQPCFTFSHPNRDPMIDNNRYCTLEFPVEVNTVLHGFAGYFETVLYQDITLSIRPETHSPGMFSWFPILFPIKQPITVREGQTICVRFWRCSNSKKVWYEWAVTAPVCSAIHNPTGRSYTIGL
PRMT5/MEP50, sequence (Q9BQA1 whole entry partner): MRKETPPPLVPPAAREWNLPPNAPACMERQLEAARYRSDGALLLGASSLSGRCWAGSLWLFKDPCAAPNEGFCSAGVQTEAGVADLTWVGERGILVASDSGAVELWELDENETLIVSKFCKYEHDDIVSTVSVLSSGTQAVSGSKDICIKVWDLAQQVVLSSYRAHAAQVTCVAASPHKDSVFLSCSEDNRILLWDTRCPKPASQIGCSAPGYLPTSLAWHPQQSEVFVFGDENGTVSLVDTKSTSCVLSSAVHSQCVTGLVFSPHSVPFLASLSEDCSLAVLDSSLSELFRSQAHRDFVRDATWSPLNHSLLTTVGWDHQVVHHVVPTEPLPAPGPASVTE

Turning to `C[C@H](c1ncccn1)N(Cc1ccc(C(F)(F)F)cn1)C(=O)c1cnc2nc(N)c(Br)cc2c1` [Example 512, 7-amino-6-bromo-N-((1R)-1-(2-pyrimidinyl)ethyl)-N-((5-(trifluoromethyl)-2-pyridinyl)methyl)-1,8-naphthyridine-3-carboxamide], the IC50 was 121 nM with HCT116 MTAP null cells (HCT116-MTAP null) and 3100 nM in the assay on HCT116 WT cells. Further, the Ki on PRMT5/MEP50 came to 0.13 nM.

For `Cc1cc2cc(C(=O)N(Cc3ccc(N4CCC(F)(F)C4)cn3)[C@H](C)c3ncccn3)ccc2nc1N` [Example 358, 2-amino-N-((5-(3,3-difluoro-1-pyrrolidinyl)-2-pyridinyl)methyl)-3-methyl-N-((1R)-1-(2-pyrimidinyl)ethyl)-6-quinolinecarboxamide], the IC50 in the assay with HCT116 MTAP null cells (HCT116-MTAP null) was 53 nM; in the assay with HCT116 WT cells it was 1370 nM. On PRMT5/MEP50, the Ki came out at 2.5 nM.

With `Cc1cc2cc(C(=O)N(Cc3ccc(C(F)(F)F)cn3)Cc3ncccc3C)ccc2nc1N` [Example 343, 2-amino-3-methyl-N-((3-methyl-2-pyridinyl)methyl)-N-((5-(trifluoromethyl)-2-pyridinyl)methyl)-6-quinolinecarboxamide], the IC50 in the assay with HCT116 MTAP null cells (HCT116-MTAP null) worked out at 104 nM; with HCT116 WT cells, 2830 nM. Also, the Ki at PRMT5/MEP50 is 0.66 nM.

Regarding `C[C@H](c1nccs1)N(Cc1ccc(Br)nn1)C(=O)c1ccc2nc(N)c(Br)cc2c1` [Example 435, 2-amino-3-bromo-N-((6-bromo-3-pyridazinyl)methyl)-N-((1R)-1-(1,3-thiazol-2-yl)ethyl)-6-quinolinecarboxamide], the IC50 turned out to be 66 nM in the assay with HCT116 MTAP null cells (HCT116-MTAP null) and 3280 nM in the assay with HCT116 WT cells. Further, the Ki on PRMT5/MEP50 amounted to 0.08 nM.

With `C[C@H](c1ncccn1)N(Cc1ccc(C(F)(F)F)cn1)C(=O)c1ccc2nc(N)cc(Cl)c2c1` [Example 433, 2-amino-4-chloro-N-((1R)-1-(2-pyrimidinyl)ethyl)-N-((5-(trifluoromethyl)-2-pyridinyl)methyl)-6-quinolinecarboxamide], the results for the IC50 with HCT116 MTAP null cells (HCT116-MTAP null) and in the assay with HCT116 WT cells were 821 nM and 1170 nM, respectively. Moreover, the Ki on PRMT5/MEP50 worked out at 1.26 nM.

Take `Cc1cc2cc(C(=O)N(Cc3ccc(C(F)F)cn3)Cc3ncccc3F)ccc2nc1N` [Example 326, 2-amino-N-((5-(difluoromethyl)-2-pyridinyl)methyl)-N-((3-fluoro-2-pyridinyl)methyl)-3-methyl-6-quinolinecarboxamide]: the IC50 in the assay on HCT116 MTAP null cells (HCT116-MTAP null) was 125 nM; in the assay with HCT116 WT cells, 4320 nM. Further, at PRMT5/MEP50, the Ki came to 0.16 nM.

In the case of `Cc1cc2cc(C(=O)N(Cc3ccccn3)Cc3ccc(C(F)(F)F)cn3)ccc2nc1N` [Example 302, 2-amino-3-methyl-N-(2-pyridinylmethyl)-N-((5-(trifluoromethyl)-2-pyridinyl)methyl)-6-quinolinecarboxamide], the IC50 in the assay on HCT116 MTAP null cells (HCT116-MTAP null) was 359 nM; in the assay with HCT116 WT cells, more than 10000 nM. Moreover, the Ki at PRMT5/MEP50 was determined as 0.3 nM.

With `Cc1cc2cc(C(=O)N(Cc3ccc(C(F)(F)F)cn3)[C@H](C)c3ncccn3)ncc2nc1N` [Example 374, 2-amino-3-methyl-N-((1R)-1-(2-pyrimidinyl)ethyl)-N-((5-(trifluoromethyl)-2-pyridinyl)methyl)-1,7-naphthyridine-6-carboxamide], the values for the IC50 in the assay with HCT116 MTAP null cells (HCT116-MTAP null) and with HCT116 WT cells were 341 nM and 8570 nM, respectively. Also, the Ki on PRMT5/MEP50 amounted to 0.48 nM.

Turning to `Cc1cc2cc(C(=O)N(Cc3ccc(C(F)F)cn3)[C@H](C)c3ncccn3)ccc2nc1N` [Example 508, 2-amino-N-((5-(difluoromethyl)-2-pyridinyl)methyl)-3-methyl-N-((1R)-1-(2-pyrimidinyl)ethyl)-6-quinolinecarboxamide], the results for the IC50 with HCT116 MTAP null cells (HCT116-MTAP null) and in the assay on HCT116 WT cells were 56 nM and 1700 nM, respectively. Besides, the Ki at PRMT5/MEP50 stood at 0.73 nM.

In the case of `COc1nc(C(F)(F)F)ccc1CN(C(=O)c1ccc2nc(N)c(C)cc2c1)[C@H](C)c1ncccn1` (single isomer, unassigned) [Example 469], the IC50 with HCT116 MTAP null cells (HCT116-MTAP null) is 33 nM; in the assay with HCT116 WT cells it was 592 nM. At PRMT5/MEP50, the Ki came to 0.03 nM.

As to `[2H]C([2H])([2H])c1cc2cc(C(=O)N(Cc3ccc(C#N)cn3)[C@H](C)c3ncccn3)ccc2nc1N` [Example 441, (R)-2-amino-N-((5-cyanopyridin-2-yl)methyl)-3-(methyl-d3)-N-(1-(pyrimidin-2-yl)ethyl)quinoline-6-carboxamide], the IC50 in the assay on HCT116 MTAP null cells (HCT116-MTAP null) is 107 nM; in the assay with HCT116 WT cells, 2810 nM. Also, the Ki on PRMT5/MEP50 was 0.06 nM.

With `Cc1cc2cc(C(=O)N(Cc3ccc(Br)cn3)[C@H](C)c3ncccn3)ccc2nc1N` [Example 402], the figures for the IC50 in the assay with HCT116 MTAP null cells (HCT116-MTAP null) and with HCT116 WT cells were 15 nM and 526 nM, respectively. At PRMT5/MEP50, the Ki came out at 0.04 nM.

With `Nc1nc2ncc(C(=O)N(Cc3ccc(C(F)(F)F)cn3)Cc3ncccc3F)cc2cc1Br` [Example 321, 7-amino-6-bromo-N-((3-fluoro-2-pyridinyl)methyl)-N-((5-(trifluoromethyl)-2-pyridinyl)methyl)-1,8-naphthyridine-3-carboxamide], the IC50 is 288 nM in the assay with HCT116 MTAP null cells (HCT116-MTAP null) and more than 10000 nM in the assay on HCT116 WT cells. For the same compound, the Ki at PRMT5/MEP50 was determined as 0.15 nM.

As for `Cc1cc2cc(C(=O)N(Cc3ccc(C#N)cn3)CC3CC3)c(F)cc2nc1N` [Example 307, 2-amino-N-((5-cyano-2-pyridinyl)methyl)-N-(cyclopropylmethyl)-7-fluoro-3-methyl-6-quinolinecarboxamide], the values for the IC50 in the assay on HCT116 MTAP null cells (HCT116-MTAP null) and in the assay with HCT116 WT cells were 349 nM and 7660 nM, respectively. Besides, the Ki on PRMT5/MEP50 stood at 1.88 nM.

Take `C[C@H](c1ncccn1)N(Cc1ccc(Cl)cn1)C(=O)c1cnc2nc(N)c(Br)cc2c1` [Example 414, 7-amino-6-bromo-N-((5-chloro-2-pyridinyl)methyl)-N-((1R)-1-(2-pyrimidinyl)ethyl)-1,8-naphthyridine-3-carboxamide]: the IC50 in the assay on HCT116 MTAP null cells (HCT116-MTAP null) is 234 nM; in the assay on HCT116 WT cells, 5180 nM. Further, the Ki at PRMT5/MEP50 was found to be 0.3 nM.

As for `C[C@H](c1ncccc1F)N(Cc1ccc(C(F)(F)F)nn1)C(=O)c1cnc2nc(N)c(Br)cc2c1` [Example 397, 7-amino-6-bromo-N-((1R)-1-(3-fluoro-2-pyridinyl)ethyl)-N-((6-(trifluoromethyl)-3-pyridazinyl)methyl)-1,8-naphthyridine-3-carboxamide], the IC50 in the assay with HCT116 MTAP null cells (HCT116-MTAP null) was found to be 286 nM; with HCT116 WT cells, 7960 nM. Besides, the Ki on PRMT5/MEP50 is 0.23 nM.

Turning to `Cc1cc2cc(C(=O)N(Cc3ccc(C(F)(F)F)cn3)[C@@H](C)c3ncn(C)n3)c(F)cc2nc1N` (single isomer, unassigned) [Example 498], the half-maximal inhibitory concentration (IC50) worked out at 459 nM in the assay on HCT116 MTAP null cells (HCT116-MTAP null) and 2030 nM in the assay on HCT116 WT cells. Further, the Ki at PRMT5/MEP50 amounted to 2.43 nM.

Turning to `Cc1cc2cc(C(=O)N(Cc3ccc(C#N)cn3)[C@H](C)c3ncn(C)n3)ccc2nc1N` (single isomer, unassigned) [Example 531], the IC50 is 78 nM in the assay with HCT116 MTAP null cells (HCT116-MTAP null) and 2830 nM in the assay on HCT116 WT cells. At PRMT5/MEP50, the Ki was determined as 0.1 nM.

Turning to `Cc1cc2cc(C(=O)N(Cc3cncc(Cl)c3)Cc3ccc(C(F)(F)F)cn3)ccc2nc1N` [Example 439, 2-amino-N-((5-chloro-3-pyridinyl)methyl)-3-methyl-N-((5-(trifluoromethyl)-2-pyridinyl)methyl)-6-quinolinecarboxamide], the IC50 in the assay on HCT116 MTAP null cells (HCT116-MTAP null) was 344 nM; in the assay with HCT116 WT cells, more than 10000 nM. In addition, the Ki on PRMT5/MEP50 came to 1.19 nM.

Consider `Cc1cc(CN(Cc2ccc(C(F)(F)F)cn2)C(=O)c2cc3cc(C)c(N)nc3cc2F)no1` [Example 316, 2-amino-7-fluoro-3-methyl-N-((5-methyl-1,2-oxazol-3-yl)methyl)-N-((5-(trifluoromethyl)-2-pyridinyl)methyl)-6-quinolinecarboxamide], for which the IC50 with HCT116 MTAP null cells (HCT116-MTAP null) worked out at 534 nM; in the assay with HCT116 WT cells it was 10400 nM. The Ki on PRMT5/MEP50 was determined as 1.03 nM.

Consider `Cc1cc2cc(C(=O)N(Cc3ccc(C#N)cn3)[C@H](C)c3ccccn3)ccc2nc1N` (single isomer, unassigned) [Example 473], for which the values for the IC50 in the assay with HCT116 MTAP null cells (HCT116-MTAP null) and in the assay with HCT116 WT cells were 302 nM and 5110 nM, respectively. The Ki at PRMT5/MEP50 worked out at 0.17 nM.

Turning to `Cc1cc2cc(C(=O)N(Cc3ccc(C(F)(F)F)cn3)Cc3ncccc3F)ccc2nc1N` [Example 320, 2-amino-N-((3-fluoro-2-pyridinyl)methyl)-3-methyl-N-((5-(trifluoromethyl)-2-pyridinyl)methyl)-6-quinolinecarboxamide], the IC50 in the assay on HCT116 MTAP null cells was determined as 79 nM; in the assay on HCT116 WT cells, 3480 nM. Also, on PRMT5/MEP50, the Ki came to 0.28 nM.

Turning to `Cc1cc(C(F)(F)F)ccc1CN(Cc1ncccc1F)C(=O)c1ccc2nc(N)c(C)cc2c1` [Example 329, 2-amino-N-((3-fluoro-2-pyridinyl)methyl)-3-methyl-N-(2-methyl-4-(trifluoromethyl)benzyl)-6-quinolinecarboxamide], the IC50 came to 128 nM with HCT116 MTAP null cells (HCT116-MTAP null) and 3900 nM with HCT116 WT cells. In addition, the Ki at PRMT5/MEP50 was determined as 0.13 nM.

By IC50 is commonly meant the concentration at which inhibition is half-maximal. The Ki is a dissociation constant, usually derived from enzyme kinetics or from competition with a known ligand.

(Values after patent US20230159510A1, “NOVEL PRMT5 INHIBITORS” (AMGEN INC., priority 2020, published 2023).)
